Results taken from patent US20230225991A1, “COMPOUNDS FOR USE IN THE TREATMENT OF ACUTE INTERMITTENT PORPHYRIA” (VESTLANDETS INNOVASJONSSELSKAP AS, priority 2019, published 2023).
Marks after values point to notes of the source that are not given here.

How the values were obtained:
WT-HMBS [1] = target: T1, WT-HMBS (Homo sapiens, UniProt P08397); assay: DSF thermal upshift (ΔTm) of HMBS; assay type: binding
T1 construct: Full-length HMBS was cloned into pET-28a(+)-TEV vector and transformed into BL21 (DE3) cells for expression; 6xHis (N, cleaved yes); TEV protease cleavage site (N, cleaved yes); made in house; host or cells: E. coli BL21 (DE3)
T1 sequence (P08397 1-361): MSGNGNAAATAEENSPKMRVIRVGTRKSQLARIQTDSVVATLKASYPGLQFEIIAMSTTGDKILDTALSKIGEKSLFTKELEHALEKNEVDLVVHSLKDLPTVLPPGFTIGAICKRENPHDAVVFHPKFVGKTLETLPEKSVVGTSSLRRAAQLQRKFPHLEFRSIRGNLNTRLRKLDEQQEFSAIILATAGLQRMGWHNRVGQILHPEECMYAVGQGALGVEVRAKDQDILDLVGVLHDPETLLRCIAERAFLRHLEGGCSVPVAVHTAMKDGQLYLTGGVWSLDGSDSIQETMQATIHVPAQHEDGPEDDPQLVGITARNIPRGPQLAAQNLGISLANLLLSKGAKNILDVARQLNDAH
Procedure: Compounds BG-2, BG-3 and BG-4 were tested on recombinant WT-HMBS using DSF and tryptic proteolysis.

[2] = target: T2, HMBS in HepG2 cells over-expressing HMBS (Homo sapiens, UniProt P08397); assay: HMBS protein level in WT-HMBS stably transfected HepG2 cells (western immunoblot); assay type: cell-based; details: 0-168 μM compound, 2% DMSO, 24 h; quantitative western immunoblotting
T2 construct: expressed in transfected cells; host or cells: HepG2 (stably transfected, G418-selected)
T2 sequence (P08397 1-361): T1 sequence (P08397 1-361)
Procedure: The human hepatoma HepG2 cells were obtained from Leibniz-Institut DSMZ—Deutsche Sammlung von Mikroorganismen und Zellkulturen GmbH. Cells were maintained in RPMI 1640, GlutaMAX™ (Thermo Fisher Scientific) medium supplemented with 10% heat-inactivated fetal bovine serum and 1% penicillin-streptomycin (Thermo Fisher Scientific) in a humidified incubator with 5% CO2 at 37° C. HMBS cDNA was inserted into the pcDNA3.1(+) cloning vector (Thermo Fisher Scientific). The HepG2 cells were then transfected with the pcDNA3.1(+) vector containing HMBS using FuGENE®HD Transfection Reagent (Promega, Madison, Wis.) according to the manufacturer's recommendations. Stably transfected clones were selected for resistance to the neomycin analogue G418 (Thermo Fisher Scientific). WT-HMBS transfected HepG2 cells (2×10^6) were seeded and grown for 22 h before compounds were added to final concentrations of 0, 40, 84, 120 and 168 μM in 2% DMSO. Cells were harvested after 24 h and analyzed as described below. […]
Cell lysate samples (20 μg total protein) were separated by electrophoresis and subsequently transferred to a PVDF transfer membrane (Bio-Rad). […] Chemiluminescence of secondary Ab-HRP conjugates was elicited using Luminata™ Crescendo Western HRP Substrate (Merck Millipore, Burlington, Mass.), imaged with Gel Doc™ XR+ (Bio-Rad) and quantified using Image Lab software (Bio-Rad). […]

WT-HMBS [3] = target: T1, WT-HMBS; assay: Limited proteolysis by trypsin; assay type: biochemical; details: 84 μM compound; for Protection against tryptic proteolysis: 2% DMSO
Procedure: Limited proteolysis by trypsin was performed at 37° C. in 20 mM HEPES, 150 mM NaCl, 2% DMSO, pH 8.2, with 0.15 μg/μl HMBS in the absence (DMSO-control) or presence of 84 μM compound and 2% DMSO. The proteolysis was initiated by adding 1 μg/ml TPCK-treated trypsin (Sigma-Aldrich). After 30 min, aliquots were removed and transferred to Laemmli loading buffer containing 2 μg/ml soybean trypsin inhibitor. Samples resolved by electrophoresis with 10% Mini-Protean® TGX™ gels (Bio-Rad Laboratories, Inc.) were analyzed using the Image Lab™ software (Bio-Rad Laboratories, Inc.). The unpaired t-test (two tailed) was performed using GraphPad Prism.
(§1) Limited tryptic proteolysis was also applied to compound BG-1. Proteolysis of WT-HMBS provided three major bands with relative content 34.5±0.3%, 14.7±0.8% and 50.9±0.5%, corresponding to remaining full-length HMBS (˜42.5 kDa), and two fragments of ˜41.0 kDa and ˜31.5 kDa, respectively (FIG. 1). […] The effect of this compound at 84 μM on the steady-state enzyme kinetics of HMBS was then calculated (Table 2).

WT-HMBS [4] = target: T1, WT-HMBS; assay: Steady-state enzyme kinetics of HMBS (KM, Vmax); assay type: biochemical; details: for Effect on steady-state enzyme kinetics of HMBS: 84 μM compound; for Vmax: variable PBG (0-1 mM), 37° C.
Procedure: The effect of the compounds on the stability of HMBS activity was assayed by pre-incubating the HMBS (4-5 μg) in 50 mM HEPES pH 8.2, 84 μM compound and 2% DMSO for 20 min at 70° C., and then placed on ice for 5 min. The enzymatic activity at 37° C. was subsequently measured as reported previously (Bustad et al., Bioscience reports 2013; 3 3(4)). Controls without compound but with equal concentration of DMSO were included. The remaining activity in the presence of compounds was normalized relative to DMSO-control (relative activity). […] USA, www.graphpad.com.
as §1

SMILES | ΔTm at 122 µM (WT-HMBS [1]; thermal upshift at y = 0.5 in scaled fluorescence curves, average compound concentration 122 μM (2% DMSO)) [°C] | Relative amount of HMBS in HepG2 cells [2] | Protection against tryptic proteolysis (WT-HMBS [3]; remaining full-length HMBS relative to DMSO) | Protection against proteolysis (WT-HMBS [3]; limited tryptic proteolysis) | Effect on steady-state enzyme kinetics of HMBS (WT-HMBS [4]) | Vmax (WT-HMBS [4]; 84 μM compound in 2% DMSO, DMSO control 61 ± 2) [nmol/min/mg] | ΔTm at 122 µM (WT-HMBS [1]; Table 3, average compound concentration 122 μM (2% DMSO)) [°C] | Protection against tryptic proteolysis (WT-HMBS [3]; Table 3) | Vmax (WT-HMBS [4]; Table 3, 84 μM compound with 2% DMSO, control 61 ± 2) [nmol/min/mg]
O=Cc1cc(Cc2ccccc2Cl)cc([N+](=O)[O-])c1O [BG-1] | 1.6 | increasing relative amount of HMBS with increasing concentration | ++** (++, 10% remaining full-length HMBS relative to DMSO.) | exhibited protection against proteolysis | reduction in both KM and Vmax | 56 ± 1 |  |  | 
O=C(c1ccccc1)c1ccc(Cl)c([N+](=O)[O-])c1 [BG-2] |  | increased the HMBS protein levels similarly to BG-1 |  |  | weak mixed inhibitory effect |  | 4.9 | +* (+, >4%) | 54 ± 2
